Measured values reported in patent US12428459B2, “Protein tag to induce ligand dependent degradation of protein/protein-fusions” (DANA-FARBER CANCER INSTITUTE, INC., priority 2019, dated 2025).
Entries after “also recorded” stand apart in the source; their conditions may differ.

Legend:
DDB1ΔB-DCAF15biotin-DDA1 = experiment: TR-FRET titration of BodipyFL-E7820 probe to the DDA1-containing complex; assay type: binding, human; settings: with versus without DDA1
Method: Titrations of BodipyFL-E7820 (4) were carried out by mixing 200 nM biotinylated Strep II Avi-tagged DCAF15 variants or equivalent volume of the assay buffer, 2 nM terbium-coupled streptavidin in the same assay buffer. After dispensing the assay mixture, increasing concentration of BodipyFL-E7820 (4) was dispensed in the 384-well plate using D300e normalized to 2% DMSO, and then incubated for 15 min at room temperature. The 520/490 nm ratios from the sample with DCAF15 was subtracted by the ratios from the sample without DCAF15, and the subtracted values were plotted to calculate the Kd values estimated using One site-Specific binding equation in GraphPad Prism® 7. All TR-FRET results are plotted as means±s.d. from three independent replicates (n=3) unless otherwise indicated.

[1] = system: DDB1ΔB-DCAF15biotin-DDA1 / RBM39RRM2; experiment: TR-FRET titration of BodipyFL-RBM39RRM2 to the DDA1-containing complex with E7820; assay type: binding, human; settings: with versus without DDA1
Method: (§1) Titrations of BodipyFL-RBM39 were carried out by mixing 400 nM biotinylated Strep II Avi-tagged DCAF15 variants, 100 μM compounds or equivalent volume of DMSO, and 4 nM terbium-coupled streptavidin in the same assay buffer. After dispensing the assay mixture, increasing concentration of BodipyFL-RBM39 was added to the compound-bound DCAF15 in a 1:1 volume ratio and incubated for 15 min at room temperature. The 520/490 nm ratios were plotted to calculate the Kd values estimated using One site-Specific binding equation in GraphPad Prism® 7.

[2] = biological target: T1, DDB1ΔB-DCAF15 and BodipyFL-RBM39RRM2-G268V (Homo sapiens, UniProt Q14498+Q66K64, G268V); experiment: TR-FRET recruitment assay with the RBM39RRM2 G268V mutant: titration of E7820; assay type: binding; settings: BodipyFL-RBM39RRM2-G268V 200 nM, E7820 0.002-33 μM
T1 construct: RBM39RRM2 (245-332), and RBM23RRM2 (263-341); made in house; host or cells: Trichoplusia ni High Five insect cells (baculovirus)
Method: (§2) Titrations of compounds to induce DCAF15-RBM39 or DCAF15-RBM23 complex were carried out by mixing 200 nM biotinylated Strep II Avi-tagged DCAF15, 200 nM BodipyFL-labeled RBM39 or RBM23 variants, and 2 nM terbium-coupled streptavidin (Invitrogen™) in an assay buffer containing 50 mM Tris pH 8.0, 200 mM NaCl, 0.1% Pluronic F-68 solution (Sigma®), and 0.5% BSA (w/v). Full-length human DCAF15 was used in all TR-FRET assays. After dispensing the assay mixture, increasing concentrations of compounds were dispensed in a 384-well microplate (Corning, 4514) using a D300e Digital Dispenser (HP) normalized to 2% DMSO. Before TR-FRET measurements were conducted, the reactions were incubated for 15 min at room temperature. After excitation of terbium fluorescence at 337 nm, emission at 490 nm (terbium) and 520 nm (BodipyFL) were recorded with a 70 μs delay over 600 μs to reduce background fluorescence, and the reaction was followed over 60 cycles of each data point using a PHERAstar® FS microplate reader (BMG Labtech). The TR-FRET signal of each data point was extracted by calculating the 520/490 nm ratio. The half-maximal effective concentration EC50 values calculated using [Agonist] vs response (three parameters) equation in GraphPad Prism® 7.

Kelly cells = experiment: TMT quantification mass spectrometry proteomics (degradome of E7820); assay type: cell-based; settings: E7820 10 μM, 5 h
Method: Treated Kelly cells were washed in PBS (Corning VWR, Radnor PA, USA) and collected at 3000 g centrifugation. Sample preparation and LC-MS analysis for whole proteome identification of novel E7820-dependent substrates was performed as described previously (Donovan et al., Elife 7:38430 (2018)).

RBM39 in HEK293T cells = biological target: T2, RBM39 in HEK293T cells (Homo sapiens, UniProt Q14498+Q66K64); experiment: Cellular degradation of endogenous RBM39, western blot; assay type: cell-based; settings: 500 nM E7820, HEK293T, 6 h
T2 construct: cellular degradation of endogenous RBM39; endogenous in cells; host or cells: HEK293T
Method: FIG. 7A-FIG. 7G are a series of cartoon representations, graphs, and structures depicting the biochemical characterization of DCAF15 binding to aryl-sulfonamides and RBM39RRM2. FIG. 7A is a schematic representation of TR-FRET-based DCAF15-RBM39 dimerization assay. FIG. 7B is a graph of TR-FRET for the titration of BodipyFL-RBM39RRM2 (0.02-20 μM) to DDB1ΔB-DCAF15biotin at 200 nM in the absence (DMSO) or presence of aryl-sulfonamides at 50 μM. Data is plotted as means±s.d. from three independent replicates (n=3). […] FIG. 7D is a schematic representation of TR-FRET-based DCAF15 binding assay. Compound 4 is titrated to the DDB1ΔB-DCAF15biotin, and the probe is displaced by competitor compounds. FIG. 7E is the chemical structure of BodipyFL-E7820 (4). […] Data is plotted as means±s.d. from three independent replicates (n=3). FIG. 7G is an immunoblot showing cellular degradation of endogenous RBM39. […] Shown is the uncropped blot with molecular size markers. The positions of RBM39 and GAPDH are indicated, and the asterisk marks a non-specific band. Quantitation of RBM39 and GAPDH bands was performed with the LI-COR imaging system, and % RBM39 is calculated as [RBM39 intensity/GAPDH intensity].

[3] = biological target: T3, DDB1ΔB-DCAF15split and BodipyFL-RBM39RRM2 (Homo sapiens, UniProt Q14498+Q66K64); experiment: TR-FRET recruitment assay with DCAF15split: titration of E7820; assay type: binding; settings: E7820 0.002-33 μM, proteins at 200 nM
T3 construct: DCAF15 NTD (30-264), DCAF15 CTD (383-600); RBM39RRM2 (245-332), and RBM23RRM2 (263-341); Strep II Avi (N); made in house; host or cells: Trichoplusia ni High Five insect cells (baculovirus)

RBM39RRM2-biotin = biological target: T4, RBM39RRM2-biotin (Homo sapiens, UniProt Q14498); experiment: TR-FRET titration of BodipyFL-E7820 probe to RBM39RRM2-biotin; assay type: binding; settings: RBM39RRM2-biotin alone
T4 construct: RBM39RRM2 (245-332), and RBM23RRM2 (263-341); made in house; host or cells: Trichoplusia ni High Five insect cells (baculovirus)
T4 sequence (Q14498 245-332): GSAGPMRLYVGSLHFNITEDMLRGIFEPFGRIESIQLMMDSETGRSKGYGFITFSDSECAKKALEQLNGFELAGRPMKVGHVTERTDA

DDB1ΔB-DCAF15biotin = biological target: T5, DDB1ΔB-DCAF15biotin (Homo sapiens, UniProt Q66K64); experiment: TR-FRET competition assay: displacement of BodipyFL-E7820 by aryl-sulfonamides; assay type: binding; settings: for DCAF15 binding relative to E7820: competitive binding assay
T5 construct: Full-length human DCAF15 was used in all TR-FRET assays; made in house; host or cells: Trichoplusia ni High Five insect cells (baculovirus)
Source text: The 520/490 nm ratios from the sample with DCAF15 was subtracted by the ratios from the sample without DCAF15, and the subtracted values were plotted to calculate the Kd values estimated using One site-Specific binding equation in GraphPad Prism® 7. All TR-FRET results are plotted as means±s.d. from three independent replicates (n=3) unless otherwise indicated.

[4] = biological target: T6, DDB1ΔB-DCAF15biotin and BodipyFL-RBM39RRM2 (Homo sapiens, UniProt Q14498+Q66K64); experiment: TR-FRET RBM39RRM2 recruitment assay: titration of compound; assay type: binding; settings: BodipyFL-RBM39RRM2-WT 200 nM, DCAF15 200 nM; read-out: EC50 of DCAF15-RBM39RRM2 complex formation
T6 construct: Full-length human DCAF15 was used in all TR-FRET assays; RBM39RRM2 (245-332), and RBM23RRM2 (263-341); made in house; host or cells: Trichoplusia ni High Five insect cells (baculovirus)
Method: as §2

[5] = system: degron tag-eGFP fusion protein in HEK293T cells; experiment: Compound-dependent degradation of degron-eGFP fusion, eGFP/mCherry ratio; assay type: cell-based; settings: 20-hour treatment
Source text: To test compound-dependent degradation of the designed degron tags, a fusion protein of the tags and enhanced green fluorescence protein (eGFP) was stably expressed in HEK293T cells using a lentiviral vector. As an internal control, the cells also expressed an untagged mCherry protein downstream of the same promoter as degron-eGFP separated by an internal ribosomal entry site. […] A lower value of eGFP/mCherry at the same compound concentration indicates a higher rate of degradation. Designed degrons have higher degradation at low doses of aryl-sulfonamides and also lower IC50 values.

[6] = biological target: T7, DDB1ΔB-DCAF15biotin / RBM39RRM2 (Homo sapiens, UniProt Q14498+Q66K64); experiment: TR-FRET DCAF15-RBM39 dimerization assay: titration of BodipyFL-RBM39RRM2 to DDB1ΔB-DCAF15biotin with aryl-sulfonamide; assay type: binding; settings: compound at 50 μM; DDB1ΔB-DCAF15biotin without DDA1; read-out: KD^app of RBM39RRM2 for DDB1ΔB-DCAF15 in the presence of compound
T7 construct: Full-length human DCAF15 was used in all TR-FRET assays; RBM39RRM2 (245-332), and RBM23RRM2 (263-341); made in house; host or cells: Trichoplusia ni High Five insect cells (baculovirus)
Method: Time-Resolved Fluorescence Resonance Energy Transfer (TR-FRET)
as §1

Cc1ccc(NS(=O)(=O)c2cccc(C#N)c2)c2[nH]cc(C#N)c12 [E7820]
Effect of DDA1 on the affinity of E7820 to DCAF15 (DDB1ΔB-DCAF15biotin-DDA1): not altered
Strengthening of apparent affinity to RBM39RRM2 by DDA1 [1]: ~3 fold
RBM39RRM2 recruitment to DCAF15 with Gly268Val mutation [2]: completely abrogated
Proteins degraded out of ~11,000 proteins detected (Kelly cells): only RBM23 to be degraded in addition to RBM39
Degradation of RBM39 in cells (RBM39 in HEK293T cells): potently degraded
DCAF15-RBM39 dimerization, DCAF15split versus full length DCAF15 [3]: equivalent binding
Binding to RBM39RRM2 (RBM39RRM2-biotin): not with RBM39

NS(=O)(=O)c1ccc(S(=O)(=O)Nc2cccc3c(Cl)c[nH]c23)cc1 [indisulam]
Ki (DDB1ΔB-DCAF15biotin; DDB1ΔB-DCAF15biotin 200 nM, BodipyFL-E7820 5 μM, aryl-sulfonamides 0.002-100 μM, read-out: Ki for DCAF15): > 50 µM
DCAF15 binding relative to E7820 (DDB1ΔB-DCAF15biotin): significant loss of DCAF15 binding; also recorded: significant loss in affinity for DCAF15
EC50 [4]: 3.2 µM
Degradation of designed degron tag-eGFP (eGFP/mCherry ratio) [5]: dose-dependent degradation

O=C(NS(=O)(=O)c1ccc(Br)s1)c1ccc(Cl)cc1Cl [tasisulam]
DCAF15 binding relative to E7820 (DDB1ΔB-DCAF15biotin): significant loss in affinity for DCAF15
Kd [6]: 3.5 µM
EC50 [4]: > 10 µM
Degradation of designed degron tag-eGFP (eGFP/mCherry ratio) [5]: dose-dependent degradation
